Assay results: US20220400680A1, “USE OF ACYLCYANAMIDES OR SALTS THEREOF FOR REGULATING PLANT GROWTH” (Alzchem Trostberg GmbH, priority 2019, published 2022)

What was measured:
[1] = tested on: Table apple, type Boiken apple (C1); assay: Greenhouse test, cut apple branches C1 dipped in test solution, bud development stage; assay type: in vivo, Malus domestica; design: key to Bud development stage, apple branches C1: Stage 0: Buds unchanged; Stage 1: Buds slightly swollen, first green tips visible; Stage 2: strongly swollen, green buds; Stage 3: Buds before breaking open, leaf or flower root already visible; Stage 4: Flower buds fully developed, but still closed, white petals already visible. In the case of the grapevine, stage 4 was the unfolding of the first leaves; Stage 5: Flowers fully open or, in the case of grapevine, unfolding of the flower roots (“Gescheine”) on the fully leafed sprouts
Protocol: Greenhouse tests were conducted using cut fruit tree branches placed in water jars and maintained under controlled conditions with temperature regulation at approximately 22° C. and natural lighting. C1: Table Apple, Type Boiken Apple Table apple: Malus domestica type Boiken first described in 1828 in Bremen after Deichvogt Boiken. Apple type for rough locations and for almost every soil suitable scattered fruit type, whereby heavy soils and not too warm locations are required. Tree growth initially strong, later medium. Older crowns become broadly spherical and are loosely branched. Flowering starting medium-late and long lasting, petals large with little pink. Yield starting late (October) and irregular; with long shelf life and pressure resistance. […] The test solutions were prepared directly, i.e. without intermediate preparation of a concentrate. For each of the test substances A-1 to A-13, an aqueous solution of 0.15 mol of the test substance and 0.15 g BreakThru® OE-446 was prepared and filled up to a total of 500 g with water. Of bis-cyanamides A-14 and A-15, 0.075 mol each was filled up to 500 g in an analogous manner. These test solutions (in combination with the above 4 species/types Cx) were given the test numbers Cx-A1 to Cx-A15. […] This was done with the following evaluation scale: • Stage 0: […] Flower buds fully developed, but still closed, white petals already visible. […] Flowers fully open or, in the case of grapevine, unfolding of the flower roots (“[…]”) on the fully leafed sprouts.

[2] = tested on: Table apple, type Zabergäu-Renette (C2); assay: Greenhouse test, cut apple branches C2 dipped in test solution, bud development stage; assay type: in vivo, Malus domestica; design: key to Bud development stage, apple branches C2: Stage 0: Buds unchanged; Stage 1: Buds slightly swollen, first green tips visible; Stage 2: strongly swollen, green buds; Stage 3: Buds before breaking open, leaf or flower root already visible; Stage 4: Flower buds fully developed, but still closed, white petals already visible. In the case of the grapevine, stage 4 was the unfolding of the first leaves; Stage 5: Flowers fully open or, in the case of grapevine, unfolding of the flower roots (“Gescheine”) on the fully leafed sprouts
Protocol: Greenhouse tests were conducted using cut fruit tree branches placed in water jars and maintained under controlled conditions with temperature regulation at approximately 22° C. and natural lighting. C2: Table Apple, Type […] Table apple: Malus domestica type […] first developed in 1885 as a chance seedling in Hausen a.d. Zaber/Baden-Württemberg and initially grown as 'Hausener Graue […]'. No defined storage type; requires heavy soils (loam). Tree growth initially strong with oblique upright leading branches, later medium with flat branches. Crown broad and flat-spherical with flat fruiting wood. Leaves large, broad oval and with clearly separated tip. Triploid type with late and long-lasting flowering. Yield starting early, medium high and somewhat alternate. […] The test solutions were prepared directly, i.e. without intermediate preparation of a concentrate. For each of the test substances A-1 to A-13, an aqueous solution of 0.15 mol of the test substance and 0.15 g BreakThru® OE-446 was prepared and filled up to a total of 500 g with water. Of bis-cyanamides A-14 and A-15, 0.075 mol each was filled up to 500 g in an analogous manner. These test solutions (in combination with the above 4 species/types Cx) were given the test numbers Cx-A1 to Cx-A15. […] This was done with the following evaluation scale: • Stage 0: […] Flower buds fully developed, but still closed, white petals already visible. […] Flowers fully open or, in the case of grapevine, unfolding of the flower roots (“[…]”) on the fully leafed sprouts.

[3] = tested on: Table cherry, type Burlat (C3); assay: Greenhouse test, cut cherry branches C3 dipped in test solution, bud development stage; assay type: in vivo, Prunus avium; design: key to Bud development stage, cherry branches C3: Stage 0: Buds unchanged; Stage 1: Buds slightly swollen, first green tips visible; Stage 2: strongly swollen, green buds; Stage 3: Buds before breaking open, leaf or flower root already visible; Stage 4: Flower buds fully developed, but still closed, white petals already visible. In the case of the grapevine, stage 4 was the unfolding of the first leaves; Stage 5: Flowers fully open or, in the case of grapevine, unfolding of the flower roots (“Gescheine”) on the fully leafed sprouts; details: for Dormancy-breaking effect according to the definition, cherry C3: stage 4 reached or exceeded after 27 days vs negative control
Protocol: Greenhouse tests were conducted using cut fruit tree branches placed in water jars and maintained under controlled conditions with temperature regulation at approximately 22° C. and natural lighting. C3: Table Cherry, Type Burlat Table cherry: Prunus avium type Bigarreau Burlat or […] is a strong-growing somewhat sparse growing sweet cherry tree with horizontal side sprouts. The type has been known since 1930 and is one of the most important types in commercial cultivation. […] Medium but regular yields identify the type as a secondary type for early and dry areas. […] The test solutions were prepared directly, i.e. without intermediate preparation of a concentrate. For each of the test substances A-1 to A-13, an aqueous solution of 0.15 mol of the test substance and 0.15 g BreakThru® OE-446 was prepared and filled up to a total of 500 g with water. Of bis-cyanamides A-14 and A-15, 0.075 mol each was filled up to 500 g in an analogous manner. These test solutions (in combination with the above 4 species/types Cx) were given the test numbers Cx-A1 to Cx-A15. […] This was done with the following evaluation scale: • Stage 0: […] Flower buds fully developed, but still closed, white petals already visible. […] Flowers fully open or, in the case of grapevine, unfolding of the flower roots (“[…]”) on the fully leafed sprouts.

[4] = tested on: Grape, type Pinot Noir (C4); assay: Greenhouse test, cut wine sprouts C4 dipped in test solution, bud development stage; assay type: in vivo, Vitis vinifera subsp. vinifera; design: key to Bud development stage, wine sprouts C4: Stage 0: Buds unchanged; Stage 1: Buds slightly swollen, first green tips visible; Stage 2: strongly swollen, green buds; Stage 3: Buds before breaking open, leaf or flower root already visible; Stage 4: Flower buds fully developed, but still closed, white petals already visible. In the case of the grapevine, stage 4 was the unfolding of the first leaves; Stage 5: Flowers fully open or, in the case of grapevine, unfolding of the flower roots (“Gescheine”) on the fully leafed sprouts; details: for Dormancy-breaking effect according to the definition, wine C4: stage 4 reached or exceeded after 36 days vs negative control
Protocol: Greenhouse tests were conducted using cut fruit tree branches placed in water jars and maintained under controlled conditions with temperature regulation at approximately 22° C. and natural lighting. C4: Grape, Type Pinot Noir Grape: Vitis vinifera subsp. vinifera type Pinot Noir is an important and high quality red wine type that has existed for possibly 2000 years. It is cultivated all over the world because the type produces high quality red wines and has sufficient winter frost resistance. The type requires early and good areas with deep, warm, medium-heavy and fertile soils with good water supply. Pinot Noir produces regular, medium-high to high yields. However, there are a large number of clones that differ in yield, berry size and looseness. […] The test solutions were prepared directly, i.e. without intermediate preparation of a concentrate. For each of the test substances A-1 to A-13, an aqueous solution of 0.15 mol of the test substance and 0.15 g BreakThru® OE-446 was prepared and filled up to a total of 500 g with water. Of bis-cyanamides A-14 and A-15, 0.075 mol each was filled up to 500 g in an analogous manner. These test solutions (in combination with the above 4 species/types Cx) were given the test numbers Cx-A1 to Cx-A15. […] This was done with the following evaluation scale: • Stage 0: […] Flower buds fully developed, but still closed, white petals already visible. […] Flowers fully open or, in the case of grapevine, unfolding of the flower roots (“[…]”) on the fully leafed sprouts.

[5] = T1 (14 d), 0.15 mol (A-14, A-15: 0.075 mol) per 500 g solution
[6] = stage 4 reached or exceeded after 36 days vs negative control

| Structure (SMILES) | Bud development stage, apple branches C1 [1, 5] | Bud development stage, apple branches C1 ([1]; T2 (16 d)) | Bud development stage, apple branches C1 ([1]; T3 (21 d)) | Bud development stage, apple branches C1 ([1]; T4 (27 d)) | Bud development stage, apple branches C1 ([1]; T5 (36 d)) | Bud development stage, apple branches C1 ([1]; T6 (56 d)) | Bud development stage, apple branches C2 [2, 5] | Bud development stage, apple branches C2 ([2]; T2 (16 d)) | Bud development stage, apple branches C2 ([2]; T3 (21 d)) | Bud development stage, apple branches C2 ([2]; T4 (27 d)) | Bud development stage, apple branches C2 ([2]; T5 (36 d)) | Bud development stage, apple branches C2 ([2]; T6 (56 d)) | Bud development stage, cherry branches C3 [3, 5] | Bud development stage, cherry branches C3 ([3]; T2 (16 d)) | Bud development stage, cherry branches C3 ([3]; T3 (21 d)) | Bud development stage, cherry branches C3 ([3]; T4 (27 d)) | Bud development stage, cherry branches C3 ([3]; T5 (36 d)) | Bud development stage, cherry branches C3 ([3]; T6 (56 d)) | Dormancy-breaking effect according to the definition, cherry C3 [3] | Bud development stage, wine sprouts C4 [4, 5] | other results |
| --- | --- | --- | --- | --- | --- | --- | --- | --- | --- | --- | --- | --- | --- | --- | --- | --- | --- | --- | --- | --- | --- |
| N#CNC(=O)Cc1ccccc1.[Na] [Example A-12, Sodium phenylacetyl cyanamide] | 0 | 1 | 2 | 2 | 5 | 5 | 0 | 0 | 3 | 3 | 4 | 5 | 0 | 1 | 2 | 5 | 5 | 5 | dormancy-breaking effect | 0 | Dormancy-breaking effect according to the definition, apple C1 [1, 6]: dormancy-breaking effect; Dormancy-breaking effect according to the definition, apple C2 [2, 6]: dormancy-breaking effect; Bud development stage, wine sprouts C4 ([4]; T2 (16 d)): 0; Bud development stage, wine sprouts C4 ([4]; T3 (21 d)): 1; Bud development stage, wine sprouts C4 ([4]; T4 (27 d)): 3; Bud development stage, wine sprouts C4 ([4]; T5 (36 d)): 4; Bud development stage, wine sprouts C4 ([4]; T6 (56 d)): 4; Dormancy-breaking effect according to the definition, wine C4 [4]: dormancy-breaking effect |
| N#CNC(=O)c1ccccc1.[Na] [Example A-4, Sodium benzoyl cyanamide] | 1 | 1 | 1 | 2 | 3 | 4 | 0 | 0 | 0 | 1 | 2 | 2 | 1 | 2 | 4 | 4 | 5 | 5 | dormancy-breaking effect | 0 | Good to very good dormancy-breaking effect, cherry C3 ([3]; stage 4 reached or exceeded after 21 days vs negative control): good to very good dormancy-breaking effect; Bud development stage, wine sprouts C4 ([4]; T2 (16 d)): 0; Bud development stage, wine sprouts C4 ([4]; T3 (21 d)): 0; Bud development stage, wine sprouts C4 ([4]; T4 (27 d)): 3; Bud development stage, wine sprouts C4 ([4]; T5 (36 d)): 5; Bud development stage, wine sprouts C4 ([4]; T6 (56 d)): 5; Dormancy-breaking effect according to the definition, wine C4 [4]: dormancy-breaking effect |
